Data reported in patent publication US20120214802A1, “PYRROLIDINE COMPOUNDS WHICH INHIBIT BETA-SECRETASE ACTIVITY AND METHODS OF USE THEREOF” (priority 2009, published 2012).

Experiments:
memapsin 2 [1] = biological target: memapsin 2 (Homo sapiens, UniProt P56817); assay: Inhibition of memapsin 2 beta-secretase activity (fluorogenic substrate FS-2); type: biochemical; settings: pH 4, 37° C., read-out: M2 Ki
Method: Potency of compounds were determined by measurement of their inhibition of memapsin 2 activity toward a fluorescent substrate. Kinetic inhibition experiments were performed using the procedure as described in Ermolieff, et al. (Biochemistry 39:12450-12456 (2000), the teachings of which are incorporated hereby in their entirety). Briefly, assays were performed at pH 4, 37° C., by pre-incubation of memapsin 2 enzyme with compound for 20 minutes. Activity measurements were initiated by addition of a fluorogenic substrate FS-2 (Bachem Americas, Torrance, Calif.) MCA-SEVNLDAEFR-DNP (SEQ ID NO.: 2). The substrate was derived from 10 amino acids of the human amyloid precursor protein (APP), with the Swedish variant amino acids at the beta-secretase cleavage site. The terminal amino acid was modified from arginine to lysine to facilitate derivatization with a functional group for detection by autofluorescence. The amino acid sequence of the “core” peptide of the substrate is SEVNLDAEFK (SEQ ID NO.: 3). The amino terminus was derivatized with (7-methoxycoumarin-4-yl)acetyl (MCA), and the epsilon amine of the lysine side chain of the terminal residue (K in sequence SEVNLDAEFK (SEQ ID NO.: 3)) was derivatized with 2,4-dinitorphenyl (DNP).

memapsin 2 [2] = biological target: T1, memapsin 2 (Cricetulus griseus, UniProt G3IAK4); assay: Cellular Aβ IC50 determination (Aβ40 sandwich ELISA); type: cell-based, Chinese hamster; settings: CHO cells over-expressing human APP695 with London and Swedish mutations, 24 h, read-out: M2 IC50
T1 construct: endogenous in cells; host or cells: Chinese hamster ovary cells over-expressing human APP695 (London + Swedish)
T1 sequence (G3IAK4 22-501): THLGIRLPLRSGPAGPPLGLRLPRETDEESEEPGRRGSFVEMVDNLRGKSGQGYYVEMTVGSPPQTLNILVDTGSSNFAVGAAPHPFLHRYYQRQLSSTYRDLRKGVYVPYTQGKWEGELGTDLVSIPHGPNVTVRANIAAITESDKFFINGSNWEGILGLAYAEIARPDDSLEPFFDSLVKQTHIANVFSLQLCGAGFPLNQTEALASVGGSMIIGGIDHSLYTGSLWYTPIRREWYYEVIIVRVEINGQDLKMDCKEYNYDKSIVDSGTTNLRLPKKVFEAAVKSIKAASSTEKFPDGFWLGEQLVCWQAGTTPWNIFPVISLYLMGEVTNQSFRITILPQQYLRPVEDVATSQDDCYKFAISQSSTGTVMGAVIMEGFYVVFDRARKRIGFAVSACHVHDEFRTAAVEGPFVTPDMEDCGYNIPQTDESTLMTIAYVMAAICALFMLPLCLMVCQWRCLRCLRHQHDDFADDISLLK
Method: The potency of compounds against memapsin 2 activity was determined in a cellular assay of Aβ production. […] Chinese hamster ovary cells that over-express human APP695 with the London and Swedish mutations were seeded in multi-well plates at 10% confluency. Compounds are dissolved in DMSO to concentrations near 1 mM, and diluted into culture media to a final concentration near 4 μM (final 0.4% DMSO). Compounds were diluted serially and applied to cells in multi-well plates 48 h after seeding. Incubation was continued in 5% CO2 at 37° C. for 24 h. Aliquots were removed and assayed for […] using a sandwich ELISA (BioSource International). Amount of Aβ40 over the range of concentration of compounds, relative to control incubations, were fit to a 4-parameter IC50 model.

CYP3A4 = biological target: T2, CYP3A4 (Homo sapiens, UniProt P08684); assay: CYP3A4 inhibition (midazolam metabolism in human liver microsomes); type: in vitro ADME; settings: substrate midazolam, read-out: CYP 3A4Ki
T2 construct: host or cells: human liver microsomes
T2 sequence (P08684 whole entry): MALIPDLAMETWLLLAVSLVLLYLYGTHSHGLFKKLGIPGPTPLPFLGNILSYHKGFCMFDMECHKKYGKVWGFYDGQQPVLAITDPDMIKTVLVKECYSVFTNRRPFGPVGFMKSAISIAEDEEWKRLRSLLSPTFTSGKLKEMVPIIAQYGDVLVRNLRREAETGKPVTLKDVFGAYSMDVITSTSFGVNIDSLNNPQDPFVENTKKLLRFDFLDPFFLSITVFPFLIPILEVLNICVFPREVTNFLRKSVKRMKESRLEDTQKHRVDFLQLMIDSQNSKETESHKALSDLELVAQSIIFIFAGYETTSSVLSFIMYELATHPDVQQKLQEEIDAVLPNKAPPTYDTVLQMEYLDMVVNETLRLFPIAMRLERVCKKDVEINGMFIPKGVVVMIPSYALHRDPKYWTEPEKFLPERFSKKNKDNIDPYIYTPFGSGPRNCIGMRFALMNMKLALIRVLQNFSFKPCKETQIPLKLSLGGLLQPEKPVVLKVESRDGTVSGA
Method: To evaluate the drug-drug interaction potential for compounds, the potency to inhibit the major metabolic cytochrome CYP450 isoform 3A4 was assessed. The inhibition constant Ki was determined for inhibition of the metabolism of midazolam, a CYP3A4 substrate.
CYP3A4 Ki assays were performed following a recently published protocol with slight modifications (Di, L., Kerns, E. H., Li, S. Q., and Carter, G. T. (2007) Comparison of cytochrome P450 inhibition assays for drug discovery using human liver microsomes with LC-MS, rhCYP450 isozymes with fluorescence, and double cocktail with LC-MS. International Journal of Pharmaceutics 335: 1-11). The P450 inhibition assay was performed in 96-well plates at 37.2° C. in a shaking incubator. The compounds were diluted from 5 mM stocks in 100% DMSO and incubated at seven final concentrations from 0.078 to 10 μM (0.1% DMSO in each final incubation), with human liver microsomes (HLM) at a final protein concentration of 0.1 mg/mL protein and a substrate concentration ranging from 1.25 to 10 μM.
The assay was standardized for both phosphate buffer (100 mM, pH 7.4) and the NADPH regenerating system (MgCl2, 3.3 mM; G6P, 3.3 mM; G6PD, 1 U/ml; NADP+, 1.3 mM). Eight replicate control samples (0.1% DMSO, no compound) were prepared. Assays (200 μL) were set up by mixing HLM+substrate stock, 10 μL of test article in 2% DMSO, and the substrate before initiating the reaction with the addition of the regenerating system mixture. Reactions were quenched following incubation for 20, 30 and 40 minutes as described following.
After incubation for the specified time in a humidified shaking incubator, 20 μL of the reaction mixture was removed and the reactions were terminated by adding 200 μL of cold acetonitrile. Samples were centrifuged at 1000×g for 15 minutes in Solvinert filter plate. The receptor plate was dried via speed vacuum at 40° C. The sample was reconstituted with a reconstitution buffer composed of 10% acetonitrile, 10% DMSO, 80% H2O with an internal standard added at a concentration of 100 ng/ml. MS-Analysis was completed using LC-MS/MS. Formation of 1′-hydroxymidazolam was measured by monitoring a specific SRM (342>203) transition for the CYP3A4 metabolite.
Data were expressed as the relative quantity of midazolam metabolite relative to control incubations. Initial velocities were obtained by multiplying the relative quantity by the initial substrate concentration and dividing by the incubation duration. Data were transformed to inverse of inivital velocity and expressed vs. inhibitor concentration [I] for determination of Ki by the Dixon method (Dixon, M. (1953) Biochemical Journal 55: 170-171) using where intercept [I]=−Ki was determined at multiple substrate concentrations.

memapsin 2 (Homo sapiens, UniProt P56817), sequence (P56817 46-501): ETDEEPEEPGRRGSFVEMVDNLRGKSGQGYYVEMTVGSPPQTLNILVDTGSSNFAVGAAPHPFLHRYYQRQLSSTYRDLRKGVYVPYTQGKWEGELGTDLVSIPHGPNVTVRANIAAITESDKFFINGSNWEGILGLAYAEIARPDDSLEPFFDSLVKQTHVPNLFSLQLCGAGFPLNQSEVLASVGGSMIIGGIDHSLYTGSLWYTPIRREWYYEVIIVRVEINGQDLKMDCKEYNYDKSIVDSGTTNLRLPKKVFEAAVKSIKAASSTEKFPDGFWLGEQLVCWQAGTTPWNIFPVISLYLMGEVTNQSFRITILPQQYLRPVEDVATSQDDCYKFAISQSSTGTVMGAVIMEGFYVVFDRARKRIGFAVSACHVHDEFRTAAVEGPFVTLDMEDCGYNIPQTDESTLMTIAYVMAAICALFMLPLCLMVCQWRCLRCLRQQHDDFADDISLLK

SMILES	Ki (memapsin 2 [1])	IC50 (memapsin 2 [2])	Ki (CYP3A4)
Cc1coc([C@H]2CCCN2C(=O)c2cc(C(=O)N[C@@H](Cc3ccccc3)[C@H](O)[C@H]3CCCN3)cc(-n3cccc3)c2)n1 [1-26, N-((1R,2S)-1-hydroxy-3-phenyl-1-((R)-pyrrolidin-2-yl)propan-2-yl)-3-((R)-2-(4-methyloxazol-2-yl)pyrrolidine-1-carbonyl)-5-(1H-pyrrol-1-yl)benzamide]	< 0.25 µM		5 to 10 µM
Cc1coc([C@H]2CCCN2C(=O)c2cc(C(=O)N[C@@H](Cc3ccccc3)[C@H](O)[C@H]3CCCN3)cc(N(C)S(C)(=O)=O)c2)n1 [1-28, N-((1R,2S)-1-hydroxy-3-phenyl-1-((R)-pyrrolidin-2-yl)propan-2-yl)-3-(N-methylmethylsulfonamido)-5-((R)-2-(4-methyloxazol-2-yl)pyrrolidine-1-carbonyl)benzamide]	< 0.25 µM		> 10 µM
Cc1csc(CN(C)C(=O)c2cc(C(=O)N[C@@H](Cc3ccccc3)[C@H](O)[C@H]3CCCN3)cc(N(C)S(C)(=O)=O)c2)n1 [1-27, N1-((1R,2S)-1-hydroxy-3-phenyl-1-((R)-pyrrolidin-2-yl)propan-2-yl)-N3-methyl-5-(N-methylmethylsulfonamido)-N3-((4-methylthiazol-2-yl)methyl)isophthalamide]	0.25 to 0.75 µM	< 0.5 µM	
Cc1csc(CN(C)C(=O)c2cccc(C(=O)N[C@@H](Cc3ccccc3)[C@H](O)[C@H]3CCCN3C(=O)OC(C)(C)C)c2)n1 [1-1, (R)-tert-butyl 2-((1S,2S)-1-hydroxy-2-(3-(methyl((4-methylthiazol-2-yl)methyl)carbamoyl)benzamido)-3-phenylpropyl)pyrrolidine-1-carboxylate]	> 0.75 µM	> 1 µM	
Cc1csc(CN(C)C(=O)c2cccc(C(=O)N[C@@H](Cc3ccccc3)[C@H](O)[C@H]3C[C@@H](O)CN3)c2)n1 [1-10, N1-((1R,2S)-1-hydroxy-1-((2R,4R)-4-hydroxypyrrolidin-2-yl)-3-phenylpropan-2-yl)-N3-methyl-N3-((4-methylthiazol-2-yl)methyl)isophthalamide]	0.25 to 0.75 µM	> 1 µM	
Cc1csc(CN(C)C(=O)c2cc(C(=O)N[C@@H](Cc3ccccc3)[C@H](O)[C@H]3CCCN3C(=O)OC(C)(C)C)cc(-c3ncco3)c2)n1 [1-7, (R)-tert-butyl 2-((1S,2S)-1-hydroxy-2-(3-(methyl((4-methylthiazol-2-yl)methyl)carbamoyl)-5-(oxazol-2-yl)benzamido)-3-phenylpropyl)pyrrolidine-1-carboxylate]	> 0.75 µM	> 1 µM	
Cc1cc(C(=O)N[C@@H](Cc2ccccc2)[C@H](O)[C@H]2CCCN2C(=O)OC(C)(C)C)cc(C(=O)N2CCC[C@@H]2c2nc(C)co2)c1 [1-6, (R)-tert-butyl 2-((1S,2S)-1-hydroxy-2-(3-methyl-5-((R)-2-(4-methyloxazol-2-yl)pyrrolidine-1-carbonyl)benzamido)-3-phenylpropyl)pyrrolidine-1-carboxylate]	> 0.75 µM	> 1 µM	
Cc1csc(CN(C)C(=O)c2cccc(C(=O)N[C@@H](Cc3ccccc3)[C@H](O)[C@H]3CCCN3)c2)n1 [1-2, N1-((1R,2S)-1-hydroxy-3-phenyl-1-((R)-pyrrolidin-2-yl)propan-2-yl)-N3-methyl-N3-((4-methylthiazol-2-yl)methyl)isophthalamide]	0.25 to 0.75 µM	> 1 µM	

The remaining lines, values ahead:

Ki (memapsin 2 [1])	IC50 (memapsin 2 [2])	Ki (CYP3A4)	SMILES
< 0.25 µM	< 0.5 µM	> 10 µM	Cc1csc([C@H]2CCCN2C(=O)c2cc(CF)cc(C(=O)N[C@@H](Cc3ccccc3)[C@H](O)[C@H]3C[C@@H](OCc4ccccc4)CN3)c2)n1 [1-36, N-((1R,2S)-1-((2R,4R)-4-(benzyloxy)pyrrolidin-2-yl)-1-hydroxy-3-phenylpropan-2-yl)-3-(fluoromethyl)-5-((R)-2-(4-methylthiazol-2-yl)pyrrolidine-1-carbonyl)benzamide]
< 0.25 µM	< 0.5 µM	< 1 µM	Cc1cc(C(=O)N[C@@H](Cc2ccccc2)[C@H](O)CNCc2cncc(C(C)C)c2)cc(C(=O)N2CCC[C@@H]2c2nc(C)cs2)c1 [2-8, N-((2S,3R)-3-hydroxy-4-((5-isopropylpyridin-3-yl)methylamino)-1-phenylbutan-2-yl)-3-methyl-5-((R)-2-(4-methylthiazol-2-yl)pyrrolidine-1-carbonyl)benzamide, reference compound]
< 0.25 µM	0.5 to 1 µM		Cc1csc([C@H]2CCCN2C(=O)c2cccc(C(=O)N[C@@H](Cc3cccc(F)c3)[C@H](O)[C@H]3CCCN3)c2)n1 [1-53, N-((1R,2S)-3-(3-fluorophenyl)-1-hydroxy-1-((R)-pyrrolidin-2-yl)propan-2-yl)-3-((R)-2-(4-methylthiazol-2-yl)pyrrolidine-1-carbonyl)benzamide]
> 0.75 µM	> 1 µM		Cc1csc([C@H]2CCCN2C(=O)c2cc(CF)cc(C(=O)N[C@H](Cc3ccccc3)[C@H](O)[C@H]3C[C@@H](OCc4ccccc4)CN3)c2)n1 [1-45, N-((1R,2R)-1-((2R,4R)-4-(benzyloxy)pyrrolidin-2-yl)-1-hydroxy-3-phenylpropan-2-yl)-3-(fluoromethyl)-5-((R)-2-(4-methylthiazol-2-yl)pyrrolidine-1-carbonyl)benzamide]
0.25 to 0.75 µM	0.5 to 1 µM		Cc1csc([C@H]2CCCN2C(=O)c2cc(C(=O)N[C@@H](Cc3ccccc3)[C@H](O)[C@H]3CCCN3)cc(N3CCC(F)(F)CC3)c2)n1 [1-46, 3-(4,4-difluoropiperidin-1-yl)-N-((1R,2S)-1-hydroxy-3-phenyl-1-((R)-pyrrolidin-2-yl)propan-2-yl)-5-((R)-2-(4-methylthiazol-2-yl)pyrrolidine-1-carbonyl)benzamide]
< 0.25 µM	> 1 µM		Cc1csc([C@H]2CCCN2C(=O)c2cc(C(=O)N[C@@H](Cc3ccccc3)[C@H](O)[C@H]3CCCN3)cc(C3CC3)c2)n1 [1-50, 3-cyclopropyl-N-((1R,2S)-1-hydroxy-3-phenyl-1-((R)-pyrrolidin-2-yl)propan-2-yl)-5-((R)-2-(4-methylthiazol-2-yl)pyrrolidine-1-carbonyl)benzamide]
> 0.75 µM	> 1 µM		Cc1csc([C@H]2CCCN2C(=O)c2cccc(C(=O)N[C@@H](Cc3ccccc3)[C@H](O)[C@H]3CC[C@@H](C)N3)c2)n1 [1-51, N-((1R,2S)-1-hydroxy-1-((2R,5R)-5-methylpyrrolidin-2-yl)-3-phenylpropan-2-yl)-3-((R)-2-(4-methylthiazol-2-yl)pyrrolidine-1-carbonyl)benzamide]
